ChEMBL document CHEMBL2203114, “The Discovery of MK-4256, a Potent SSTR3 Antagonist as a Potential Treatment of Type 2 Diabetes” (ACS Med Chem Lett, 2012)
Calls of active or inactive are those of the source. The rule behind the calls is not given here.

Legend:
[1] = biological target: Somatostatin receptor type 3 (Mus musculus) (UniProt P30935); assay: Inhibition of mouse SSTR3 transfected in CHO cells assessed as inhibition of SRIF-induced reduction of cAMP accumulation after 45 mins relative to control; type: functional, cell-based; set-up: concentration or dose not given beside the values
Somatostatin receptor type 3 (Mus musculus), sequence (P30935 whole entry): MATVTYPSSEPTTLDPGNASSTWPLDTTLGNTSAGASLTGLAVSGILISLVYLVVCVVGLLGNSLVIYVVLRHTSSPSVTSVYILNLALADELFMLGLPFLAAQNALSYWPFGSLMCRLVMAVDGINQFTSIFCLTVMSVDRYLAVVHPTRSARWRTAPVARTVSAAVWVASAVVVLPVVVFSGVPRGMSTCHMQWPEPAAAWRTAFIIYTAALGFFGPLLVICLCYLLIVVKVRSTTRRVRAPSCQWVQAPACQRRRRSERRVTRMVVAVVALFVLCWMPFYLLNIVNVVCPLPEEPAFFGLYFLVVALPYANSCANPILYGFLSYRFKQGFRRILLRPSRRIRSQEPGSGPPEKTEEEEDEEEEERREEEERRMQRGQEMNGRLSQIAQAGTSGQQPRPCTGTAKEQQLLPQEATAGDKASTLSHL

Mus musculus [2] = assay: Antidiabetic activity in C57BL/6 mouse assessed as reduction of glucose excursion at 1 mg/kg, po by OGTT; type: functional; set-up: scale not given: the % may be the effect or the level left
[3] = biological target: T1, Somatostatin receptor type 3 (Mus musculus, UniProt P30935)
T1 sequence (P30935 whole entry): as above

[4] = biological target: T2, Somatostatin receptor type 3 (Homo sapiens, UniProt P32745)
T2 sequence (P32745 whole entry): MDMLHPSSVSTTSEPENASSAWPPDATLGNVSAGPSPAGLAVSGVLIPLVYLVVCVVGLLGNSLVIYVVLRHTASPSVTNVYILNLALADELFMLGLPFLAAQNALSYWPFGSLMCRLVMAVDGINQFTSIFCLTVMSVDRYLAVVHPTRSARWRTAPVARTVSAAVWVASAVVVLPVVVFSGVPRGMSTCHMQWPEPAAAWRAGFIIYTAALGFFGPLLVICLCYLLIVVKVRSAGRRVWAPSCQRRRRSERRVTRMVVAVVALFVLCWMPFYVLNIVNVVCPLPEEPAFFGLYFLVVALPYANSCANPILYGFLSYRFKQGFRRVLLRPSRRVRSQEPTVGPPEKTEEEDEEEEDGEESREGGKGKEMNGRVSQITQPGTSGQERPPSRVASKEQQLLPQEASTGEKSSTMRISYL
Description: Inhibition of human SSTR3 transfected in CHO cells assessed as inhibition of SRIF-induced reduction of cAMP accumulation after 45 mins

[5] = biological target: T1, Somatostatin receptor type 3; assay: biochemical
Description: Displacement of [125I]SS-28 from mouse SSTR3 transfected in CHO cells after 60 to 90 mins

[6] = biological target: T2, Somatostatin receptor type 3; assay: biochemical
Description: Displacement of [125I]SS-28 from human SSTR3 transfected in CHO cells after 60 to 90 mins

[7] = biological target: Voltage-gated inwardly rectifying potassium channel KCNH2 (Homo sapiens, UniProt Q12809)
Voltage-gated inwardly rectifying potassium channel KCNH2, sequence (Q12809 whole entry): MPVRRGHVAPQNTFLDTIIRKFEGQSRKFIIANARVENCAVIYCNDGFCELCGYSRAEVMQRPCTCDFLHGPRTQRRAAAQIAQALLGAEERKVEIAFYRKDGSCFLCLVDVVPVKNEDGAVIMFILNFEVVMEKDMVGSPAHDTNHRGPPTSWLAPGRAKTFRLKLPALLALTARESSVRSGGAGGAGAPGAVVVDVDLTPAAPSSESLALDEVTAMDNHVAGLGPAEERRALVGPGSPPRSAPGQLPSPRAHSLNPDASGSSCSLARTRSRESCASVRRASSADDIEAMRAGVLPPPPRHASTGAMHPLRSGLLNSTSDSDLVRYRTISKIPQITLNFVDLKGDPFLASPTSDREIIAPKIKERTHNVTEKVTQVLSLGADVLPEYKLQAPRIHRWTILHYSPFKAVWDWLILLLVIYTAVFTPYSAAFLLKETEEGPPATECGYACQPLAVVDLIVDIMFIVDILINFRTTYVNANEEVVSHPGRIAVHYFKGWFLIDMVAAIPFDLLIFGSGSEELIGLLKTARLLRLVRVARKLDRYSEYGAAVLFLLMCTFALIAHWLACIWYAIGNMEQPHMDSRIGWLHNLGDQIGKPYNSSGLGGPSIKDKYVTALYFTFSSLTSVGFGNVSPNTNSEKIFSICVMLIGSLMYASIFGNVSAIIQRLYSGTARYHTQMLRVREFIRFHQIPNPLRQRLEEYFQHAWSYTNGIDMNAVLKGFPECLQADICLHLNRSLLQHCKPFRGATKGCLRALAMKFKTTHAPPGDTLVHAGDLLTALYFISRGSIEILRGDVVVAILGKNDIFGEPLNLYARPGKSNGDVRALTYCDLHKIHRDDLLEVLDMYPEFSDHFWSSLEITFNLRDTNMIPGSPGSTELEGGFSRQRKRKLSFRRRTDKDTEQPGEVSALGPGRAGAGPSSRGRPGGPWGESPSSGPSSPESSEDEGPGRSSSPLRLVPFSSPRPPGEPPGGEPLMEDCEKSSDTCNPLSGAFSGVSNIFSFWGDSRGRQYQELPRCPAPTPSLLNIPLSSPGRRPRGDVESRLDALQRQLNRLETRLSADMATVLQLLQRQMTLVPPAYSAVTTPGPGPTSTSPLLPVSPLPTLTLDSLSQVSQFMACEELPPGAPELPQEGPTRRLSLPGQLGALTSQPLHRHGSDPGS
Description: Displacement of radiolabeled MK-499 from human ERG channel

Mus musculus [8] = assay: Antidiabetic activity in C57BL/6N mouse assessed as reduction of blood glucose level at 10 mg/kg, po measured after 60 mins post administration; type: functional, organism-based; set-up: dose 10 mg/kg
[9] = Plasma concentration in C57BL/6 mouse at 10 mg/kg, po measured after 2.5 hrs; type: ADME, organism-based; set-up: dose 10 mg/kg, route oral
Mus musculus [10] = assay: Antidiabetic activity in C57BL/6 mouse assessed as reduction of glucose excursion at 10 mg/kg, po by ipGTT; type: functional; set-up: scale not given: the % may be the effect or the level left
Mus musculus [11] = assay: Antidiabetic activity in C57BL/6N mouse assessed as reduction of blood glucose level at 0.01 to 1 mg/kg, po measured over 5 hrs; type: functional, organism-based
Mus musculus [12] = assay: Antidiabetic activity in SSTR3-knockout mouse assessed as reduction of blood glucose excursion at 1 mg/kg by OGTT; type: functional; set-up: scale not given: the % may be the effect or the level left
Mus musculus [13] = assay: Antidiabetic activity in C57BL/6N mouse assessed as reduction of blood glucose excursion at 1 mg/kg by OGTT ( Rvb = 91%); type: functional
Mus musculus [14] = assay: Antidiabetic activity in po dosed C57BL/6 mouse assessed as reduction of glucose excursion by OGTT; type: functional, organism-based
[15] = biological target: Somatostatin receptor type 5 (Homo sapiens) (UniProt P35346); assay: Inhibition of human SSTR5 transfected in CHO cells assessed as inhibition of SRIF-induced reduction of cAMP accumulation at 5 uM after 45 mins; type: functional, cell-based
Somatostatin receptor type 5 (Homo sapiens), sequence (P35346 whole entry): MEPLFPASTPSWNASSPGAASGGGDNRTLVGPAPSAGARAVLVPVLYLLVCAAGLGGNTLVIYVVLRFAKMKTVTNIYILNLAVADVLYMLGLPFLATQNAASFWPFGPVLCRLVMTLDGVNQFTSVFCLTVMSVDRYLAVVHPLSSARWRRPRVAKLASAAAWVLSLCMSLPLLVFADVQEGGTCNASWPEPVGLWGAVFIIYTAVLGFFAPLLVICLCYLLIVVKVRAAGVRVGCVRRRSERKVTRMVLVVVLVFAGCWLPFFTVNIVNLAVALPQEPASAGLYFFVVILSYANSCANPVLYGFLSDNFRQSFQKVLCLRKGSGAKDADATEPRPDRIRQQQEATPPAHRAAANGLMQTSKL

[16] = biological target: Somatostatin receptor type 4 (Homo sapiens) (UniProt P31391); settings: CHO, 20 uM
Somatostatin receptor type 4 (Homo sapiens), sequence (P31391 whole entry): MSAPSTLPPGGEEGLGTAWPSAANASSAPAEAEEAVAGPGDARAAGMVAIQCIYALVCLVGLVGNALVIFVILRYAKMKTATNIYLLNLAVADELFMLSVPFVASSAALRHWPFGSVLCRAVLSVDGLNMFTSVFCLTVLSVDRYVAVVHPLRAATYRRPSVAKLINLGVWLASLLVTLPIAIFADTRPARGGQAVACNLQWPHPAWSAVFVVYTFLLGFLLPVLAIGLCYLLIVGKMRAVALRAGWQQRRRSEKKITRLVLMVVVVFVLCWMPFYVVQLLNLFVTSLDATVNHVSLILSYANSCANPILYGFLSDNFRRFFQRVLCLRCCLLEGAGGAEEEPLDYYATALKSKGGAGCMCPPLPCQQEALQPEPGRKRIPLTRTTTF

[17] = Volume of distribution at steady state in rat at 2 mg/kg, po and 1 mg/kg, iv; settings: in vivo
[18] = Clearance in rat at 1 mg/kg, iv; settings: in vivo
[19] = Half life in rat at 1 mg/kg, iv; settings: in vivo
[20] = Volume of distribution at steady state in mouse at 10 mg/kg, po and 4 mg/kg, iv; settings: in vivo
[21] = Clearance in mouse at 4 mg/kg, iv; settings: in vivo
[22] = Half life in mouse at 4 mg/kg, iv; settings: in vivo
in vivo [23] = settings: rat, po, 2 mg/kg
in vivo [24] = settings: rat, plasma, po, 2 mg/kg
in vivo [25] = settings: mouse, po, 10 mg/kg
in vivo [26] = settings: mouse, plasma, po, 10 mg/kg
[27] = Volume of distribution at steady state in rhesus monkey at 1 mg/kg, iv and 2 mg/kg, po; settings: in vivo
[28] = Clearance in rhesus monkey at 1 mg/kg, iv; settings: in vivo
[29] = Half life in rhesus monkey at 1 mg/kg, iv; settings: in vivo
[30] = Volume of distribution at steady state in dog at 1 mg/kg, iv and 2 mg/kg, po; settings: in vivo
[31] = Clearance in dog at 1 mg/kg, iv; settings: in vivo
[32] = Half life in dog at 1 mg/kg, iv; settings: in vivo
in vivo [33] = settings: rhesus monkey, po, 2 mg/kg
in vivo [34] = settings: dog, po, 2 mg/kg
in vivo [35] = settings: rhesus monkey, plasma, po, 2 mg/kg
in vivo [36] = settings: dog, plasma, po, 2 mg/kg

Row | Structure (SMILES) | inhibition [1] | Activity (Mus musculus [2]) | IC50 [3] | IC50 [4] | IC50 [5] | IC50 [6] | Ki [7] | concentration at 2.5 h [9] | Activity (Mus musculus [10]) | also measured
1 | Cc1nc([C@@]2(c3cnn(C)c3)N[C@H](c3nc(-c4ccc(F)cc4)c[nH]3)Cc3c2[nH]c2ccccc32)no1 | 92% | 81% | – | – | – | – | – | – | – | –
2 | Cc1nc(C2(c3noc(C)n3)N[C@@H](c3nc(-c4ccc(F)cc4)c[nH]3)Cc3c2[nH]c2ccccc32)no1 | 133% | 71% | 1.3 nM | 1.2 nM | 0.59 nM | 0.97 nM | – | – | – | –
3 | Cc1nc([C@H]2N[C@@H](c3nc(-c4ccc(F)cc4)c[nH]3)Cc3c2[nH]c2ccccc32)no1 | 103% | – | 18 nM | 19 nM | – | 19 nM | 385 nM | – | – | –
4 | Cn1cc(C2(c3cnn(C)c3)N[C@@H](c3nc(-c4ccc(F)cc4)c[nH]3)Cc3c2[nH]c2ccccc32)cn1 | 113% | 68% | 0.48 nM | 0.7 nM | 0.46 nM | 0.74 nM | – | – | – | –
5 | Cc1cnc(C(=O)NCCc2ccc(S(=O)(=O)NC(=O)NC3CCCCC3)cc2)cn1 | – | – | – | – | – | – | – | – | – | Activity (Mus musculus [8]): Active
6 | Cn1cc([C@H]2N[C@@H](c3nc(-c4ccc(F)cc4)c[nH]3)Cc3c2[nH]c2ccccc32)cn1 | 67% | – | 4.4 nM | 9.3 nM | 4 nM | 6.9 nM | 300 nM | 1200 nM | 91% | –
7 | c1ccc(-c2c[nH]c([C@H]3Cc4c([nH]c5ccccc45)[C@@H](C4CCOCC4)N3)n2)cc1 | 98% | – | – | 11 nM | – | – | – | 3800 nM | 75% | –
8 | Cc1nc([C@@]2(c3cnn(C)c3)N[C@@H](c3nc(-c4ccc(F)cc4)c[nH]3)Cc3c2[nH]c2ccccc32)no1 | 130% | 63% | – | – | – | – | – | – | – | –
9 | Cc1nc([C@]2(c3cnn(C)c3)N[C@@H](c3nc(-c4ccc(F)cc4)c[nH]3)Cc3c2[nH]c2ccccc32)no1 | 87% | 109% | – | – | – | – | – | – | – | Activity (Mus musculus [11]): inactive; Activity (Mus musculus [12]): 28%; inhibition in vivo at 1 mg/kg (Mus musculus [13]): 112%; Activity (Mus musculus [14]): Dose-dependent effect; inhibition [15]: 34%; inhibition [16]: 42%
10 | Fc1ccc(-c2c[nH]c([C@H]3Cc4c([nH]c5ccccc45)[C@@H](C4CCOCC4)N3)n2)cc1 | 108% | – | 26 nM | 5.7 nM | 1.7 nM | 2.8 nM | – | 4600 nM | 79% | –
11 | Cc1nc([C@]2(c3cnn(C)c3)N[C@H](c3nc(-c4ccc(F)cc4)c[nH]3)Cc3c2[nH]c2ccccc32)no1 | 68% | 80% | – | – | – | – | – | – | – | –
12 | Fc1ccc(-c2c[nH]c([C@H]3Cc4c([nH]c5ccccc45)C(c4ccccc4)(c4ccccc4)N3)n2)cc1 | 101% | – | 2.4 nM | 7.3 nM | – | 0.76 nM | 44 nM | – | – | –
13 | Cn1cc([C@@H]2N[C@@H](c3nc(-c4ccc(F)cc4)c[nH]3)Cc3c2[nH]c2ccccc32)cn1 | 66% | – | 26 nM | 33 nM | 4.8 nM | 7.2 nM | 2190 nM | 1600 nM | 84% | Vd [17]: 4.59 L/kg; clearance [18]: 25.3 mL/min/kg; half-life [19]: 2.26 h; Vd [20]: 10.8 L/kg; clearance [21]: 99.6 mL/min/kg; half-life [22]: 2.24 h; bioavailability (in vivo [23]): 47%; AUC(0-t) (in vivo [24]): 1.38 µM·h; bioavailability (in vivo [25]): 100%; AUC(0-t) (in vivo [26]): 4.11 µM·h
14 | Cc1nc([C@@H]2N[C@@H](c3nc(-c4ccc(F)cc4)c[nH]3)Cc3c2[nH]c2ccccc32)no1 | 92% | – | 29 nM | 58 nM | 8.1 nM | 9.2 nM | 2210 nM | 200 nM | 87% | Vd [27]: 1.75 L/kg; clearance [28]: 2.79 mL/min/kg; half-life [29]: 8.08 h; Vd [30]: 0.87 L/kg; clearance [31]: 1.78 mL/min/kg; half-life [32]: 6.69 h; Vd [17]: 5.83 L/kg; clearance [18]: 9.67 mL/min/kg; half-life [19]: 8.14 h; Vd [20]: 7.21 L/kg; clearance [21]: 39.9 mL/min/kg; half-life [22]: 2.58 h; bioavailability (in vivo [33]): 51%; bioavailability (in vivo [34]): 67%; AUC(0-t) (in vivo [35]): 12.4 µM·h; bioavailability (in vivo [23]): 58%; AUC(0-t) (in vivo [24]): 4.36 µM·h; bioavailability (in vivo [25]): 76%; AUC(0-t) (in vivo [26]): 7.73 µM·h; AUC(0-t) (in vivo [36]): 27.6 µM·h
